Assay type in all cases: functional, cell-based
Assay [1] concerns ChaGo. Description: (§1) Cytotoxicity against human ChaGo cells after 3 days by MTT assay. (Tetrazolium dyes change colour on reduction, which living cells bring about.)
In assay [2] the test system is SW-620. In words: Cytotoxicity against human SW620 cells after 3 days by MTT assay.
The subject of assay [3] is BT-474. In words: Cytotoxicity against human BT474 cells after 3 days by MTT assay.
The test system of assay [4] is KATO III cell. In words: Cytotoxicity against human KATO III cells after 3 days by MTT assay.
The test system of assay [5] is HepG2. In words: Cytotoxicity against human HepG2 cells after 3 days by MTT assay. Particulars: for IC50: HepG2, 72 h.
Assay [6] is described as follows: as §1. Particulars: 72 h.

In ChEMBL document CHEMBL1153734, “Protoxylocarpins F-H, protolimonoids from seed kernels of Xylocarpus granatum” (J Nat Prod, 2009) one finds Activity and IC50 data, which are given here for 14 compounds.

Calls of active or inactive are those of the source. The rule behind the calls is not given here.

`COC(=O)C[C@H]1C(C)(C)[C@@H]2O[C@@]34C[C@@H]2C(=O)[C@]1(C)[C@H]3CC[C@@]1(C)[C@@H](c2ccoc2)OC(=O)C[C@]14O`: the outcome in assay [1], in assay [2], in assay [3], in assay [4] and in assay [5] was inactive.

Take `COC(=O)CC[C@@H]1[C@@H](C)C(=O)C([C@@H](OC(C)=O)[C@@]2(O)C(=O)CC[C@]3(C)C2=CC(=O)O[C@H]3c2ccoc2)=CC1(C)C` [XYLOGRANATIN C]: in assay [6], inhibition was half-maximal at 9.16 µM (IC50). In addition, the result in assay [2], in assay [3] and in assay [4] was inactive.

Regarding `COC(=O)C[C@H]1C(C)(C)[C@H](O)[C@@H]2CC3=C4CC(=O)O[C@@H](c5ccoc5)[C@]4(C)CC[C@@H]3[C@@]1(C)C2=O`, the outcome in assay [1], in assay [2], in assay [3], in assay [4] and in assay [5] was inactive.

With `CC(=O)OC1OC(C2OC2(C)C)C[C@@H]1[C@H]1CC=C2C3(C)C(O)CC4C(C)(C)C(=O)CC[C@]4(C)[C@H]3CC[C@@]21C` (stereo not given in full), the result in assay [1], in assay [2], in assay [3], in assay [4] and in assay [5] was inactive.

For `CC(=O)O[C@@H]1C[C@H]2C(C)(C)C(=O)C=C[C@]2(C)[C@H]2CC[C@]3(C)C(=CC[C@H]3[C@@H]3COC(=O)C3)[C@@]21C`, the result in assay [1], in assay [2], in assay [3], in assay [4] and in assay [5] was inactive.

Take `CC1(C)C(=O)C=C[C@]2(C)[C@H]3CC[C@@]4(C)[C@H](c5ccoc5)OC(=O)[C@H]5O[C@]54[C@]3(C)C(=O)C[C@@H]12` [DEACETOXY-7-OXOGEDUNIN]: in assay [5], 16.2 µM corresponded to half-maximal inhibition (IC50). This counts as double-digit micromolar.

In the case of `COC(=O)[C@H](OC(C)=O)[C@H]1[C@]2(C)C[C@]3(O)[C@@](OC(C)=O)([C@H]4O[C@@]5(C)O[C@@]6(CC[C@@]7(C)[C@H](c8ccoc8)OC(=O)C[C@@]7(O)[C@@]46O5)[C@]13C)[C@H]2OC(C)=O`, the outcome in assay [1], in assay [2], in assay [3], in assay [4] and in assay [5] was inactive.

`CC1(C)C(=O)C=C[C@]2(C)[C@H]3CC[C@@]4(C)[C@H](c5ccoc5)OC(=O)[C@H]5O[C@]54[C@]3(C)[C@H](O)C[C@@H]12` [DEACETYLGEDUNIN]: the IC50 is 16 µM in assay [6] and 10.3 µM in assay [5]. For the same compound, the result in assay [2], in assay [3] and in assay [4] was inactive.

Take `CC(=O)O[C@@H]1C[C@H]2C(C)(C)C(=O)C=C[C@]2(C)[C@H]2CC[C@]3(C)C(=CC[C@H]3[C@H]3CO[C@@H]([C@@H](O)C(C)(C)O)C3)[C@@]21C`: the result in assay [1], in assay [2], in assay [3], in assay [4] and in assay [5] was inactive.

On to `CC(=O)O[C@@H]1C[C@H]2C(C)(C)C(=O)C=C[C@]2(C)[C@H]2CC[C@]3(C)C(=CC[C@H]3[C@H]3CO[C@@H](C4(O)OC4(C)C)C3)[C@@]21C` (stereo not given in full), for which the outcome in assay [1], in assay [2], in assay [3], in assay [4] and in assay [5] was inactive.

Consider `C=C1[C@@H]2CC[C@@]3(C)[C@H](c4ccoc4)OC(=O)C[C@]13O[C@H]1CC(=O)C(C)(C)[C@H](CC(=O)OC)[C@]12C`, for which the outcome in assay [1], in assay [2], in assay [3], in assay [4] and in assay [5] was inactive.

Turning to `CC(=O)O[C@@H]1C[C@H]2C(C)(C)C(=O)C=C[C@]2(C)[C@H]2CC[C@]3(C)C(=CC[C@H]3[C@H]3CO[C@@H]([C@H](O)C(C)(C)O)C3)[C@@]21C`, the outcome in assay [1], in assay [2], in assay [3], in assay [4] and in assay [5] was inactive.

In the case of `COC(=O)C[C@H]1C(C)(C)C(=O)[C@@H]2CC3=C4CC(=O)O[C@@H](c5ccoc5)[C@]4(C)CC[C@@H]3[C@@]1(C)C2=O`, the result in assay [1], in assay [2], in assay [3], in assay [4] and in assay [5] was inactive.

As to `COC(=O)[C@H](OC(C)=O)[C@H]1[C@]2(C)C[C@]3(O)[C@H]([C@H]2OC(C)=O)[C@H]2O[C@@]4(C)O[C@@]5(CC[C@@]6(C)[C@H](c7ccoc7)OC(=O)C[C@@]6(O)[C@@]25O4)[C@]13C`, the result in assay [1], in assay [2], in assay [3], in assay [4] and in assay [5] was inactive.

In general, IC50 refers to the point on the concentration scale where inhibition reaches its midpoint. Read a high IC50 as weaker potency in that assay.
